The target in this experiment is T1, Cyclin-dependent kinase 2 (CDK2) (Homo sapiens, UniProt P24941).
T1 construct: Full-length human CDK2, GST-N-terminal tagged fusion protein
The experiment in a line: pulldown of purified GST-CDK2 with HHT-conjugated beads (free HHT competes in lysate pulldown); DARTS in HEK293 lysate; CDK2/Cyclin A2 kinase assay inhibited at […] HHT. It counts as binding. The source says: Thus, hydrogen-bonds with T47, R50 and R150 appear critical

From publication PMC9122913 (Nature Communications, 2022) come the findings set out here.

Each structure is given as a SMILES string.

Turning to `COC(=O)C[C@](O)(CCCC(C)(C)O)C(=O)O[C@@H]1C(OC)=C[C@]23CCCN2CCc2cc4c(cc2[C@H]13)OCO4` [HHT, homoharringtonine], the “pulldown of purified GST-CDK2 with HHT-conjugated beads (free HHT competes in ly)” value was “interaction between HHT and CDK2-3As was abolished (Fig. 1G). Thus, hydrogen-bonds with T47, R50 and R150 appear critical”.
